{"source": "patent US20250228239A1", "about": "“MOLECULES HAVING PESTICIDAL UTILITY, AND INTERMEDIATES, COMPOSITIONS, AND PROCESSES, RELATED THERETO” (priority 2024, published 2025)", "key": {"[1]": {"system": "Cabbage Looper (Trichoplusia ni, TRIPNI)", "experiment": "Bioassays on Cabbage Looper (CL), 128-well diet tray assay", "type": "in vivo", "conditions": "Trichoplusia ni", "method": "(§1) Certain molecules disclosed in this document were tested against BAW and CL using procedures described in the following examples. In the reporting of the results, the “BAW & CL Rating Table” was used (See Table Section).\nBioassays on CL were conducted using a 128-well diet tray assay. One to five second instar CL larvae were placed in each well (3 mL) of the diet tray that had been previously filled with 1 mL of artificial diet to which 50 μg/cm^2 of the test molecule (dissolved in 50 μL of 90:10 acetone-water mixture) had been applied (to each of eight wells) and then allowed to dry. Trays were covered with a clear self-adhesive cover, vented to allow gas exchange, and held at 25° C., 14:10 light-dark for five to seven days. Percent mortality was recorded for the larvae in each well; activity in the eight wells was then averaged. The results are indicated in the table entitled “Table ABC: Biological Results” (See Table Section)."}, "[2]": {"system": "Beet Armyworm (Spodoptera exigua, LAPHEG)", "experiment": "Bioassays on Beet Armyworm (BAW), 128-well diet tray assay", "type": "in vivo", "conditions": "Spodoptera exigua; Table ABC: Biological Results; species BAW; read-out: BAW", "method": "as §1\nBioassays on BAW were conducted using a 128-well diet tray assay. One to five second instar BAW larvae were placed in each well (3 mL) of the diet tray that had been previously filled with 1 mL of artificial diet to which 50 μg/cm^2 of the test molecule (dissolved in 50 μL of 90:10 acetone-water mixture) had been applied (to each of eight wells) and then allowed to dry. Trays were covered with a clear self-adhesive cover, vented to allow gas exchange, and held at 25° C., 14:10 light-dark for five to seven days. Percent mortality was recorded for the larvae in each well; activity in the eight wells was then averaged. The results are indicated in the table entitled “Table ABC: Biological Results” (See Table Section)."}, "[3]": {"conditions": "Table ABC: Biological Results, species CL, read-out: CL"}}, "note": "Like-named read-outs stand apart in the source and are kept apart here."}
{"smiles": "CC(=O)Oc1c(F)ccc(NC(=O)c2cc(NC(=O)[C@H]3[C@H](c4cc(Cl)cc(Cl)c4)C3(Cl)Cl)ccc2Cl)c1F", "note": "(relative stereo) [F1193, trans-3-(2-Chloro-5-(2,2-dichloro-3-(3,5-dichlorophenyl)cyclopropane-1-carboxamido)benzamido)-2,6-difluorophenyl acetate]", "values": [{"measurement": "pest or weed control at 50 µg/cm2", "setting": "[1]; [3]", "result": "50 to 100", "unit": "%"}]}
{"smiles": "COc1c(F)cc(NC(=O)[C@H]2[C@H](c3ccc(F)c(Cl)c3)C2(Cl)Cl)cc1C(=O)Nc1ccccc1", "note": "(relative stereo) [F1213, trans-5-(2,2-Dichloro-3-(3-chloro-4-fluorophenyl)cyclopropane-1-carboxamido)-3-fluoro-2-methoxy-N-phenylbenzamide]", "values": [{"measurement": "pest or weed control at 50 µg/cm2", "setting": "[1]; [3]", "result": "50 to 100", "unit": "%"}]}
{"smiles": "CC(=O)OCCN(C(=O)OC(C)(C)C)c1ccc(NC(=O)c2cc(NC(=O)[C@H]3[C@H](c4cc(Cl)cc(Cl)c4)C3(Cl)Cl)ccc2Cl)c(C)c1", "note": "(relative stereo) [F1129, trans-2-((tert-butoxycarbonyl)(4-(2-chloro-5-(2,2-dichloro-3-(3,5-dichlorophenyl)cyclopropane-1-carboxamido)benzamido)-3-methylphenyl)amino)ethyl acetate]", "values": [{"measurement": "pest or weed control at 50 µg/cm2", "setting": "[1]; [3]", "result": "50 to 100", "unit": "%"}]}
{"smiles": "COc1c(Cl)cc(NC(=O)[C@H]2[C@H](c3ccc(F)c(Cl)c3)C2(Cl)Cl)cc1C(=O)Nc1ccc(F)c(N(C(=O)OC(C)(C)C)C(=O)OC(C)(C)C)c1F", "note": "(relative stereo) [F1237, trans-tert-Butyl-N-tert-butoxycarbonyl-N-[3-[[3-chloro-5-[[2,2-dichloro-3-(3-chloro-4-fluorophenyl)cyclopropanecarbonyl]amino]-2-methoxybenzoyl]amino]-2,6-difluorophenyl]carbamate]", "values": [{"measurement": "pest or weed control at 50 µg/cm2", "setting": "[2]", "result": "0 to 50", "unit": "%"}]}
{"smiles": "CC(C)(C)OC(=O)N(C(=O)OC(C)(C)C)c1c(F)ccc(NC(=O)c2c(Cl)ccc(NC(=O)[C@H]3[C@H](c4ccc(F)c(Cl)c4)C3(Cl)Cl)c2Cl)c1F", "note": "(relative stereo) [F1107, trans-tert-Butyl-N-tert-butoxycarbonyl-N-[3-[[2,6-dichloro-3-[[2,2-dichloro-3-(3-chloro-4-fluorophenyl)cyclopropanecarbonyl]amino]benzoyl]amino]-2,6-difluoro-phenyl]carbamate]", "values": [{"measurement": "pest or weed control at 50 µg/cm2", "setting": "[1]; [3]", "result": "0 to 50", "unit": "%"}]}
{"smiles": "CC(C)(C)OC(=O)N(C(=O)OC(C)(C)C)c1c(F)ccc(NC(=O)c2cc(NC(=O)[C@H]3[C@H](c4ccc(F)c(Cl)c4)C3(Cl)Cl)cc(Cl)c2F)c1F", "note": "(relative stereo) [F1198, trans-tert-Butyl-N-tert-butoxycarbonyl-N-[3-[[3-chloro-5-[[2,2-dichloro-3-(3-chloro-4-fluorophenyl)cyclopropanecarbonyl]amino]-2-fluorobenzoyl]amino]-2,6-difluorophenyl]carbamate]", "values": [{"measurement": "pest or weed control at 50 µg/cm2", "setting": "[1]; [3]", "result": "0 to 50", "unit": "%"}]}
{"smiles": "CC(C)(C)OC(=O)N(C(=O)OC(C)(C)C)c1c(F)ccc(NC(=O)c2cc(NC(=O)[C@H]3[C@H](c4ccc(F)c(Cl)c4)C3(Cl)Cl)cc(F)c2Cl)c1F", "note": "(relative stereo) [F1155, trans-tert-Butyl-N-tert-butoxycarbonyl-N-[3-[[2-chloro-5-[[2,2-dichloro-3-(3-chloro-4-fluorophenyl)cyclopropanecarbonyl]amino]-3-fluorobenzoyl]amino]-2,6-difluorophenyl]carbamate]", "values": [{"measurement": "pest or weed control at 50 µg/cm2", "setting": "[2]", "result": "50 to 100", "unit": "%"}]}
{"smiles": "O=C(Nc1cc(Cl)c(O)c(Cl)c1)c1cc(NC(=O)[C@H]2[C@H](c3cc(Cl)cc(Cl)c3)C2(Cl)Cl)ccc1Cl", "note": "(relative stereo) [F1360, trans-2-Chloro-5-(2,2-dichloro-3-(3,5-dichlorophenyl)cyclopropane-1-carboxamido)-N-(3,5-dichloro-4-hydroxyphenyl)benzamide]", "values": [{"measurement": "pest or weed control at 50 µg/cm2", "setting": "[1]; [3]", "result": "50 to 100", "unit": "%"}]}
{"smiles": "CCOC(=O)C(F)(F)CNC(=O)c1cc(NC(=O)[C@H]2[C@H](c3cc(Cl)cc(Cl)c3)C2(Cl)Cl)ccc1Cl", "note": "(relative stereo) [F2076, trans-Ethyl 3-(2-chloro-5-(2,2-dichloro-3-(3,5-dichlorophenyl)cyclopropane-1-carboxamido)benzamido)-2,2-difluoropropanoate]", "values": [{"measurement": "pest or weed control at 50 µg/cm2", "setting": "[1]; Cabbage Looper, Table ABC / ABC-DP rating, read-out: CL rating", "result": "50 to 100", "unit": "%"}]}
